Source: US10827753B2, “Compositions and methods for controlling nematodes” (Monsanto Technology LLC, priority 2007, dated 2020)
Marks after values point to notes of the source that are not given here.

Tests used:
[1] = test system: Meloidogyne incognita; experiment: Summer field evaluation of pre-plant incorporated compounds on squash; assay type: in vivo
Method in brief: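 PPI simulation: compound in acetone/Triton X-100 and water mixed into 80% sand/20% silt loam with chopped galled tomato roots, filling top 15 cm of 6 replicate field plots. M. incognita eggs/larvae (100 k per plot) injected 5 cm deep; three-week-old squash cv. Liberator III planted 4 days after treatment.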

[2] = test system: soybean cyst nematode (SCN); experiment: SCN greenhouse sand assay on soybean plants; assay type: in vivo, Heterodera glycines
From the text: Soybeans seeds are planted in 100% sand in two inch square plastic pots.
Chemical treatment is done when the soybeans show the first trifoliate beginning to emerge about 10 to 12 days after planting. At least four hours after chemical application the nematode soybean cyst nematode (SCN) eggs are applied and 28 days after the egg inoculation the test is harvested.
One milligram of chemistry per four pots is equal to one kilogram per hectare of chemical. A standard test uses four replications. For rates above 2 kg/ha, the desired amount of chemical is weighed into a 30 ml vial (example: 8 kg/ha rate=8 mg chemical in 30 ml vial). The chemical is dissolved in 2 ml of appropriate solvent, generally acetone. For rates below 2 kg/ha, 2 milligrams of chemistry is weighed into the vial and dissolved in 2 ml of the solvent. The appropriate amount of chemical concentrate is then pipetted into a separate 30 ml vial and solvent is added to bring the volume to 2 ml (example 0.5 kg/ha=0.5 ml of concentrate+1.5 ml solvent). Each dissolved concentrate is then brought to a total of 20 milliliters using 0.05% Triton X 100 surfactant solution.
Pots to be treated are moist but not saturated. To each of four pots, five milliliters of the appropriate chemical solution is pipetted to the media surface making sure to avoid contact with the base of the plant. Immediately following chemical application, using a mist nozzle, the pot surface is wetted sufficiently to saturate the pot watering in the chemistry. The chemical application is done in the morning.
Nematode eggs, either SCN or RKN, are added to distilled water to create a concentration of 1000 vermiform eggs […]. At least four hours after chemical treatment the eggs are applied to the treated pots plus non-treated check plants. A small hole about 1 cm deep is punched into the pot surface. One milliliter of the nematode egg slurry is pipetted into the hole. Immediately afterwards the hole is gently covered. Watering of the test plants is then restricted to only water as needed to prevent wilt for a period of 24 hours. After the 24 hour restricted watering, normal sub-irrigation watering is done for the duration of the test.

SMILES	0-3 vigor 16 DAP ([1]; 4 kg (kg/ha) PPI, squash)	0-3 vigor 21 DAP ([1]; 4 kg (kg/ha) PPI, squash)	feeder root (3 = ave) 31 DAP ([1]; 4 kg (kg/ha) PPI, squash)	gall % 31 DAP ([1]; 4 kg (kg/ha) PPI, squash)	root wgt (g) 31 DAP ([1]; 4 kg (kg/ha) PPI, squash)	top wgt (lbs) 31 DAP ([1]; 4 kg (kg/ha) PPI, squash)	total fruit (lbs) ([1]; 4 kg (kg/ha) PPI, squash)	control of M. incognita (in words) ([1]; PPI application at 4 kg/ha)	percent control (cyst number reduction) relative to the control blank treatment ([2]; 0.1 kg/ha, test d)	percent control (cyst number reduction) relative to the control blank treatment ([2]; 0.25 kg/ha, test d)	percent control (cyst number reduction) relative to the control blank treatment ([2]; 1 kg/ha, test a)	percent control (cyst number reduction) relative to the control blank treatment ([2]; 1 kg/ha, test b)	percent control (cyst number reduction) relative to the control blank treatment ([2]; 1 kg/ha, test c)
Cc1cc(Cl)ccc1-c1noc(-c2ccco2)n1 [compound 5823]	3.0	3.0	2.7	3%	22.6 g	1.45 lbs	1.44 lbs	excellent control					
CCOP(=O)(NC(C)C)Oc1ccc(SC)c(C)c1 (stereo not shown) [Fenamiphos, fenamiphos, reference compound]									5^d percent	26^d percent	98^a percent	98^b percent	94^c percent
